Measurements from patent US7485665B2, “Medicinal composition” (Nagase Chemtex Corporation, priority 2002, dated 2009).
Where a name gives a salt, the structure may show the parent alone.

What was measured:
ddy male mouse = experiment: Acute toxicity in mouse, oral and intravenous administration; format: in vivo
Protocol: Using a ddy male mouse, the drug obtained in Example 9 and TKS159 were suspended in 0.5% methylcellulose for oral administration, and were dissolved in a physiological saline for intravenous administration. This was administered by a forced oral administration method and an intravenous administration method using a probe, and acute toxicity was observed.

dopamine D2 receptor = target: T1, dopamine D2 receptor (Rattus norvegicus, UniProt P61169); experiment: Binding affinity for dopamine D2 receptor ([3H]-spiperone displacement); details: for IC50: Wistar rat corpus striatum receptor sample, 0.25 nM [3H]-spiperone
T1 construct: centrifugation and suspension were repeated to prepare a dopamine D2 receptor sample; from tissue; host or cells: corpus striatum of Wistar male rat (membrane homogenate)
T1 sequence (P61169 whole entry): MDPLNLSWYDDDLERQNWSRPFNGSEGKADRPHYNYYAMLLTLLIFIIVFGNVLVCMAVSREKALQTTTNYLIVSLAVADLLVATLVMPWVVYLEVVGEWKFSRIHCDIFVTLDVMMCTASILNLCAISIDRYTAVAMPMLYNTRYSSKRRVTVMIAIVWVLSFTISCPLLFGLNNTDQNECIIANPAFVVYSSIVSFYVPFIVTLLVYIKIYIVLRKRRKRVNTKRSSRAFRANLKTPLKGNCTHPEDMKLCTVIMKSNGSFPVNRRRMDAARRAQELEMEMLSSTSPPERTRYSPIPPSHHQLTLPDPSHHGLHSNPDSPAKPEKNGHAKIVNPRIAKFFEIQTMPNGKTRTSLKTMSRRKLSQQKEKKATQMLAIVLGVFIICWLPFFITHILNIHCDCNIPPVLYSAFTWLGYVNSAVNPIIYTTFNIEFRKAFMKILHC
Protocol: Corpus striatum extracted from a Wistar male rat was homogenized in a 50 mM Tris-HCl buffer (pH 7.7), and centrifugation and suspension were repeated to prepare a dopamine D2 receptor sample. The receptor sample was reacted with a solution containing a 0.25 nM radioactive ligand of [^3H]-spiperone and the specimen drug obtained in Example 9 at a prescribed concentration. Then, the solution was filtered by suction using a multifilter MF-12G (glass filter (provided with Whatman GF/C)), and radioactivity of the filter was measured using a scintillation counter (LS6500 Beckman), so that affinity of the specimen drug for a dopamine D2 receptor was measured. Separately, the same procedure was also performed regarding TKS159 hydrochloride, and the affinity was compared.

serotonin receptor 4 = target: T2, serotonin receptor 4 (Cavia porcellus, UniProt O70528); experiment: Binding affinity for serotonin receptor 4 ([3H]-GR113808 displacement); parameters: species or system guinea pig; details: for IC50: guinea pig corpus striatum receptor sample, 0.1 nM [3H]-GR113808
T2 construct: centrifugation and suspension were repeated to prepare a serotonin receptor 4 sample; from tissue; host or cells: corpus striatum of Hartley male guinea pig (membrane homogenate)
T2 sequence (O70528 whole entry): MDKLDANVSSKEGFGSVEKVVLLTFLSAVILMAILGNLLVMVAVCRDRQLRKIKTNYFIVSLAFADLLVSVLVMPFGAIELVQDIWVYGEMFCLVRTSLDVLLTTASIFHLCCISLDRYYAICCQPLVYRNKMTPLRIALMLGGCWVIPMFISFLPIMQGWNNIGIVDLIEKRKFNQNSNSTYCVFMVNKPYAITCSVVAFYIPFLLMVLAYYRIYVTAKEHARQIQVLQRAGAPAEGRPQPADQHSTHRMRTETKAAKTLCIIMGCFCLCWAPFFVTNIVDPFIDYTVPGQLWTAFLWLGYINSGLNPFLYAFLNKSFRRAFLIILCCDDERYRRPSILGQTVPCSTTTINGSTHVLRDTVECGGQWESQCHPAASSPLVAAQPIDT
Protocol: Corpus striatum extracted from a Hartley male guinea pig was homogenized in a 50 mM HEPES-NaOH buffer (pH 7.4), and centrifugation and suspension were repeated to prepare a serotonin receptor 4 sample. The receptor sample was reacted with a solution containing a 0.1 nM radioactive ligand of [^3H]-GR113808 and the specimen drug obtained in Example 9 at a prescribed concentration. Then, the solution was filtered by suction using a multifilter MF-12G (glass filter (provided with Whatman GFIC)), and radioactivity of the filter was measured using a scintillation counter (LS6500 Beckman), so that affinity of the specimen drug for a serotonin receptor 4 was measured. Separately, the same procedure was also performed regarding TKS159 hydrochloride, and the affinity was compared.

[1] = tested on: esophagus sample extracted from a rat; experiment: Relaxation reaction in rat-extracted esophagus muscularis mucosae sample contracted with carbachol; details: for EC50: Wistar rat esophagus muscularis mucosae, 3x10^-6 M carbachol, 1 μM methysergide, ketanserin and granisetron present
Protocol: Regarding the drug obtained in Example 9, a degree of action of promoting the movement of the digestive tract was measured using an esophagus sample extracted from a rat.
An esophagus in a chest cavity was extracted from a Wistar male rat, and muscularis propria sample containing longitudinal muscle and circular muscle was removed to prepare a muscularis mucosae sample having a length of about 2 cm. The sample was immersed in a nutrient solution (containing NaCl 118.5, KCl 4.7, CaCl2 1.3, MgSO4 0.6, NaHCO3 25.0, KH2PO4 1.2, and glucose 11.1 (unit mM)), and constriction of the sample and stability of the constriction were confirmed at 32°C using 3x10 ^-6M carbachol while a 95% 02/5% Co2 mixed gas was flown, each 1 μM of methysergide, ketanserin and granisetron were added, the drug obtained in Example 9 was accumulatively applied at a common ratio of 3 after 30 minutes, and a degree of relaxation was isotonically (stationary tension; about 0.5 g) measured via a transducer. Separately, the same procedure was also performed regarding TKS159 hydrochloride, and an intensity of the action was compared.

beagle dogs [2] = experiment: 4-week repeated oral administration to beagle dogs, necropsy and pathohistological test; format: in vivo; details: beagle dog, oral 100 mg/kg once a day for 4 weeks
Protocol: Using three beagle dogs as a test animal, 4-amino-5-chloro-2-methoxy-N-[(2S,4S)-2-hydroxymethyl-4-pyrrolidinyl]benzamide monohydrochloride obtained in Example 9 was repeatedly administered orally at a dose of 100 mg/kg once a day for 4 weeks. Thereafter, the animals were sacrificed by exsanguination from carotid artery under anesthesia, and the brain, aorta, heart, lung, and liver were extracted. These organs were examined with naked eyes, fixed with a 0.1% phosphate-buffered 10% formalin solution, and stored. Each organ was embedded in paraffin, and sliced to prepare a hematoxine orange-stained sample. Pathohistological test on the sections was performed using a light microscope.

Sprague-Dawley male rats = experiment: 28-day repeated oral administration to rats, necropsy and pathohistological test; format: in vivo; details: rat, oral 300, 1000 or 2000 mg/kg once a day for 28 days
Protocol: Five Sprague-Dawley male rats, 4 week age, weighing each 160.3 to 169.5 g, were reared for 8 days for quarantine and training were handled as one group, and they were grouped into four groups of a control group, a 300 mg/kg administration, a 1000 mg/kg administration, and a 2000 mg/kg administration. 4-Amino-5-chloro-2-methoxy-N-[(2S,4S)-2-hydroxymethyl-4-pyrrolidinyl] benzamide monohydrochloride obtained in Example 9 was ground with a mortar, the powder was added so that the compound was contained at 300 mg, 1000 mg or 2000 mg in 10 ml of a 0.5% aqueous methylcellulose solution (manufactured by Wako Pure Chemical Industries, Ltd.; prepared using Japanese Pharmacopoeia injectable water), and the solution was stirred to prepare an administration specimen. Administration specimens for 7 days were prepared at one time, once per week, stored in a refrigerator, and used. One-time dose was defined to be 10 ml/kg, and the specimen was forcibly administered orally at 9 o'clock to 12 o'clock for 28 days once a day using a rat stomach tube. Only a 0.5% aqueous methylcellulose solution was administered at 10 ml/kg to a control group.
During training and drug administration period, a solid feed (CE-2 manufactured by CLEA Japan Inc.) and tap water were freely given.

beagle dogs [3] = experiment: Repeated oral administration toxicity tests of TKS159 in beagle dogs (4, 13 and 52 weeks); format: in vivo
Protocol: Separately, beagle dogs (female and male) were divided into 4 groups consisting of 6, 4, 4 and 6 dogs and, among them, to 3 groups were repeatedly administered orally TKS 159 at a dose of 2.5, 6.0 and 15.0 mg/kg, and to a control group was repeatedly administered orally an excipient, for 13 weeks, and observation of the general status and various tests were performed. Further, regarding a control group and a case of a part of a 15.0 mg/kg administration group, after a repeated administration period for 13 weeks, a recovery test of no administration of a drug was performed for 4 weeks, and then the same test was performed. […] Separately, beagle dogs (female and male) were divided into 4 groups containing 5, 3, 3 and 5 dogs and, among them, to 3 groups was repeatedly administered orally TKS159 at a dose of 0.25, 0.75 and 2.25 mg/kg, to a control group was repeatedly administered an excipient orally, for 52 weeks, and observation of the general status and various tests were performed. Further, regarding a control group and a case of a part of a 2.25 mg/kg administration group, after a repeated administration period for 52 weeks, a recovery test of no administration of a drug was performed for 4 weeks, and then the same test was performed.

[4] = beagle dogs, 13 weeks, 15.0 mg/kg group
[5] = beagle dogs, 52 weeks, 2.25 mg/kg group
[6] = male beagle dogs, 4 weeks, 100 mg/kg group

| affinity for a dopamine D2 receptor as compared with TKS159 hydrochloride (dopamine D2 receptor; FIG. 2) | affinity for a serotonin receptor 4 as compared with TK5159 hydrochloride (serotonin receptor 4; FIG. 1) | SMILES | Survival (ddy male mouse; intravenous administration, 132 mg/kg) | Survival (ddy male mouse; oral administration, 1080 mg/kg) | IC50 (dopamine D2 receptor) [nM] | IC50 (serotonin receptor 4) [nM] | EC50 [1] [nM] | pathohistological test (beagle dogs [2]) | organs examined with naked eyes (beagle dogs [2]; brain, aorta, heart, lung, liver) | relaxing action as compared with TKS159 hydrochloride ([1]; FIG. 3) | organs observed with naked eyes (Sprague-Dawley male rats) | pathohistological test (Sprague-Dawley male rats) | findings in other one case (beagle dogs [3]; [4]) | findings in two cases (beagle dogs [3]; [4]) | arteritis findings (beagle dogs [3]; [5]) | malacia findings (beagle dogs [3]; [5]) | findings in death case (beagle dogs [3]; [6]) | findings in survival case (beagle dogs [3]; [6]) |
| --- | --- | --- | --- | --- | --- | --- | --- | --- | --- | --- | --- | --- | --- | --- | --- | --- | --- | --- |
| – | – | CCN1CC(NC(=O)c2cc(Cl)c(N)cc2OC)CC1CO (stereo not drawn) [TKS159 hydrochloride] | No survival among 6 | No survival among 2 | 3800 | 450 | 1100 | – | – | – | – | – | – | – | – | – | – | – |
| weaker | stronger | COc1cc(N)c(Cl)cc1C(=O)N[C@@H]1CN[C@H](CO)C1.Cl [Example 9, 4-amino-5-chloro-2-methoxy-N-[(2S,4S)-2-hydroxymethyl-4-pyrrolidinyl]benzamide monohydrochloride] | – | – | 34000 | 250 | 700 | encephalomalacia, arteritis and thrombus formation were not recognized | Abnormality was not seen in any organ | stronger | Abnormality was not seen with naked eyes in any organ | encephalomalacia, arteritis and thrombus formation were not recognized | – | – | – | – | – | – |
| – | – | CCN1C[C@@H](NC(=O)c2cc(Cl)c(N)cc2OC)C[C@H]1CO [TKS159, 4-Amino-5-chloro-2-methoxy-N-[(2S,4S)-1-ethyl-2-hydroxymethyl-4-pyrrolidinyl]benzamide] | – | – | – | – | – | – | – | – | – | – | necrosis of an artery septum and surrounding cell infiltration were recognized | arteritis was recognized | arteritis was observed in thighbone marrow and mediastinal lymph node in one case among male 5 cases | malacia was seen in piriform lobe and hippocampus in other one case | thrombus formation was recognized in a lung artery and a heart coronary artery, and slight bleeding was recognized in a cavity surrounding a blood vessel in a cerebral parenchyma | big thrombus formation was recognized in a left ventricle, and thrombus formation was recognized in a kidney arcuate artery and an interlobar artery |
